Laboratory results: patent US4486419A, “5,2',3',4',4",6"-Hexadeoxykanamycin and its 1-N-acylated derivative” (Zaidan Hojin Biseibutsu Kagaku Kenkyu Kai, priority 1982, dated 1984)
≈ marks a conversion by molar mass, not a printed value.

What was measured:
Escherichia coli W677 = type: cell-based; conditions: nutrient agar, 37° C., 18 hours
[1] = system: Escherichia coli K-12 C 600R135; assay: microbe, parasite or virus in culture; type: cell-based; conditions: K12C600R135, 18 h
[2] = system: Escherichia coli K-12 R 388; type: cell-based; conditions: K12R388, 18 h
[3] = system: Escherichia coli K-12 J5R 11-2; type: cell-based; conditions: K12J5R112, nutrient agar, 37° C., 18 hours
[4] = system: Pseudomonas maltophilia GN907; type: cell-based; conditions: Stenotrophomonas maltophilia, nutrient agar, 37° C., 18 hours
[5] = system: Escherichia coli K-12 ML 1630; type: cell-based; conditions: K12ML1630, nutrient agar, 37° C., 18 hours
[6] = system: Escherichia coli K-12 ML 1410; type: cell-based; conditions: K12ML1410, nutrient agar, 37° C., 18 hours
Proteus rettgeri GN466 = type: cell-based; conditions: Providencia rettgeri, nutrient agar, 37° C., 18 hours
[7] = system: Escherichia coli K-12 LA 290 R56; assay: microbe, parasite or virus in culture; type: cell-based; conditions: K12LA290R56, 18 h
[8] = system: Pseudomonas aeruginosa GN315; type: cell-based; conditions: nutrient agar, 37° C., 18 hours
[9] = system: Escherichia coli K-12 ML 1410 R81; assay: microbe, parasite or virus in culture; type: cell-based; conditions: 18 h
[10] = system: Pseudomonas aeruginosa H9; type: cell-based; conditions: H9, 18 h
Providencia 2991 = type: cell-based; conditions: nutrient agar, 37° C., 18 hours
[11] = system: Staphylococcus epidermidis 109; type: cell-based; conditions: nutrient agar, 37° C., 18 hours
Escherichia coli NIHJ = type: cell-based; conditions: nutrient agar, 37° C., 18 hours
[12] = system: Escherichia coli K-12 LA 290 R55; assay: microbe, parasite or virus in culture; type: cell-based; conditions: K12LA290R55, 18 h
Bacillus anthracis = assay: microbe, parasite or virus in culture; type: cell-based; conditions: 18 h
[13] = system: Klebsiella pneumoniae 22 #3038; type: cell-based; conditions: nutrient agar, 37° C., 18 hours
Escherichia coli K-12 R5 = type: cell-based; conditions: K12R5, 18 h
[14] = system: Corynebacterium bovis 1810; assay: microbe, parasite or virus in culture; conditions: Corynebacterium bovis, 1810, 18 h
Experimental: (§1) Thus, the minimum inhibitory concentrations (mcg/ml) of the hexadeoxykanamycin and of the hexadeoxyamikacin according to this invention against various microorganisms were determined according to serial dilution method on a nutrient agar medium at 37° C., the estimation being made after 18 hours incubation. For comparison purpose, the minimum inhibitory concentrations of amikacin were also determined in the same manner as stated above.

Serratia marcescens = assay: microbe, parasite or virus in culture; conditions: 18 h
Experimental: as §1

[15] = system: Staphylococcus aureus Smith; type: cell-based; conditions: nutrient agar, 37° C., 18 hours
Escherichia coli K-12 = type: cell-based; conditions: K12, nutrient agar, 37° C., 18 hours
[16] = system: Bacillus subtilis NRRL B-558; type: cell-based; conditions: NRRLB558, nutrient agar, 37° C., 18 hours
Proteus rettgeri GN311 = type: cell-based; conditions: Providencia rettgeri, nutrient agar, 37° C., 18 hours
[17] = system: Staphylococcus aureus Ap01; type: cell-based; conditions: nutrient agar, 37° C., 18 hours
[18] = system: Pseudomonas aeruginosa H11; type: cell-based; conditions: nutrient agar, 37° C., 18 hours
[19] = system: Pseudomonas aeruginosa No. 12; type: cell-based; conditions: nutrient agar, 37° C., 18 hours
[20] = system: Klebsiella pneumoniae PCI 602; type: cell-based; conditions: PCI602, nutrient agar, 37° C., 18 hours
[21] = system: Escherichia coli JR66/W677; type: cell-based; conditions: JR66/W677, 18 h
Escherichia coli JR255 = assay: microbe, parasite or virus in culture; type: cell-based; conditions: JR255, 18 h
Providencia Pv 16 = type: cell-based; conditions: PV16, nutrient agar, 37° C., 18 hours
[22] = system: Pseudomonas aeruginosa B-13; type: cell-based; conditions: B13, 18 h
Serratia 4 = type: cell-based; conditions: nutrient agar, 37° C., 18 hours
[23] = system: Pseudomonas aeruginosa A3; type: cell-based; conditions: A3, 18 h
[24] = system: Escherichia coli K-12 LA 290 R64; assay: microbe, parasite or virus in culture; type: cell-based; conditions: K12LA290R64, 18 h
[25] = system: Mycobacterium smegmatis ATCC 607; type: cell-based; conditions: Mycolicibacterium smegmatis, ATCC607; nutrient agar, 37° C., 18 hours
[26] = system: Staphylococcus aureus FDA 209P; type: cell-based; conditions: FDA209P, nutrient agar, 37° C., 18 hours
[27] = system: Pseudomonas aeruginosa K-Ps102; type: cell-based; conditions: KPS102, 18 h
[28] = system: Pseudomonas aeruginosa PST1; type: cell-based; conditions: nutrient agar, 37° C., 18 hours
[29] = system: Pseudomonas aeruginosa TI-13; type: cell-based; conditions: TI13, nutrient agar, 37° C., 18 hours
[30] = system: Salmonella enteritidis 1891; type: cell-based; conditions: Salmonella enterica, nutrient agar, 37° C., 18 hours

Structure (SMILES): C[C@@H]1C[C@H](N)[C@@H](O)[C@@H](O[C@@H]2C[C@H](O[C@@H]3CCC[C@@H](CN)O3)[C@@H](N)C[C@H]2NC(=O)[C@@H](O)CCN)O1 [Hexadeoxyamikacin, 1-N-[(S)-4-amino-2-hydroxybutyryl]-5,2',3',4',4",6"-hexadeoxykanamycin]
- MIC (Escherichia coli W677): 0.78 µg/mL (≈ 1.59 µM)
- MIC [1]: 1.56 µg/mL (≈ 3.19 µM)
- MIC [2]: 0.78 µg/mL (≈ 1.59 µM)
- MIC [3]: 1.56 µg/mL (≈ 3.19 µM)
- MIC [4]: > 100 µg/mL
- MIC [5]: 3.13 µg/mL (≈ 6.39 µM)
- MIC [6]: 3.13 µg/mL (≈ 6.39 µM)
- MIC (Proteus rettgeri GN466): 1.56 µg/mL (≈ 3.19 µM)
- MIC [7]: 1.56 µg/mL (≈ 3.19 µM)
- MIC [8]: > 100 µg/mL
- MIC [9]: 3.13 µg/mL (≈ 6.39 µM)
- MIC [10]: 50 µg/mL (≈ 102 µM)
- MIC (Providencia 2991): 6.25 µg/mL (≈ 12.8 µM)
- MIC [11]: 1.56 µg/mL (≈ 3.19 µM)
- MIC (Escherichia coli NIHJ): 1.56 µg/mL (≈ 3.19 µM)
- MIC [12]: 1.56 µg/mL (≈ 3.19 µM)
- MIC (Bacillus anthracis): 1.56 µg/mL (≈ 3.19 µM)
- MIC [13]: 3.13 µg/mL (≈ 6.39 µM)
- MIC (Escherichia coli K-12 R5): 100 µg/mL (≈ 204 µM)
- MIC [14]: 6.25 µg/mL (≈ 12.8 µM)
- MIC (Serratia marcescens): 6.25 µg/mL (≈ 12.8 µM)
- MIC [15]: 1.56 µg/mL (≈ 3.19 µM)
- MIC (Escherichia coli K-12): 0.78 µg/mL (≈ 1.59 µM)
- MIC [16]: 0.78 µg/mL (≈ 1.59 µM)
- MIC (Proteus rettgeri GN311): 1.56 µg/mL (≈ 3.19 µM)
- MIC [17]: 3.13 µg/mL (≈ 6.39 µM)
- MIC [18]: 100 µg/mL (≈ 204 µM)
- MIC [19]: 25 µg/mL (≈ 51.1 µM)
- MIC [20]: 1.56 µg/mL (≈ 3.19 µM)
- MIC [21]: 3.13 µg/mL (≈ 6.39 µM)
- MIC (Escherichia coli JR255): 0.78 µg/mL (≈ 1.59 µM)
- MIC (Providencia Pv 16): 3.13 µg/mL (≈ 6.39 µM)
- MIC [22]: 50 µg/mL (≈ 102 µM)
- MIC (Serratia 4): 12.5 µg/mL (≈ 25.5 µM)
- MIC [23]: 0.78 µg/mL (≈ 1.59 µM)
- MIC [24]: 3.13 µg/mL (≈ 6.39 µM)
- MIC [25]: 1.56 µg/mL (≈ 3.19 µM)
- MIC [26]: 0.78 µg/mL (≈ 1.59 µM)
- MIC [27]: 50 µg/mL (≈ 102 µM)
- MIC [28]: 50 µg/mL (≈ 102 µM)
- MIC [29]: 12.5 µg/mL (≈ 25.5 µM)
- MIC [30]: 3.13 µg/mL (≈ 6.39 µM)
